Test results taken from PMC8119466, “A screen of FDA-approved drugs identifies inhibitors of protein tyrosine phosphatase 4A3 (PTP4A3 or PRL-3)” (Scientific Reports, 2021).
Counter-ions that a name gives are not always drawn. Like-named read-outs stand apart in the source and are kept apart here. Residues, ends and D or L forms follow the SMILES beside them.

Experiments:
Type in all cases: biochemical
[1] = target: T1, recombinant PRL-2 (Homo sapiens, UniProt Q12974); test: In vitro phosphatase assay (DiFMUP hydrolysis), PRL-2;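 also: PRL-2 activity read as DiFMUP hydrolysis after 20 min at room temperature with drug, enzyme first pre-reduced at 4 °C for 20 min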
T1 construct: 6xHis (N, cleaved yes); made in house; host or cells: E. coli One Shot BL21 Star
T1 sequence (Q12974 1-167): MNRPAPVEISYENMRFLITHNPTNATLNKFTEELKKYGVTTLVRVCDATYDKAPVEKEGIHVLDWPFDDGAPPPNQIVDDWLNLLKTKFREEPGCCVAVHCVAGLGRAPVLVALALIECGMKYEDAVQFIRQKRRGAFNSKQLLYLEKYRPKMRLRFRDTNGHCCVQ

[2] = target: T2, recombinant PRL-3 (Homo sapiens, UniProt O75365); test: In vitro phosphatase assay (DiFMUP hydrolysis), PRL-3; also: test concentration or dose not given here
T2 construct: 6xHis (N, cleaved yes); made in house; host or cells: E. coli One Shot BL21 Star
T2 sequence (O75365 whole entry): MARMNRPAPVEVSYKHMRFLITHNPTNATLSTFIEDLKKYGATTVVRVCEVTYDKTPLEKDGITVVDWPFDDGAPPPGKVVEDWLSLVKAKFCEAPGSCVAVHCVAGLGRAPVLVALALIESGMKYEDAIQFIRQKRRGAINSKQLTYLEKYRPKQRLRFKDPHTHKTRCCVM

[3] = target: T3, recombinant PRL-1 (Homo sapiens, UniProt Q93096); test: In vitro phosphatase assay (DiFMUP hydrolysis), PRL-1; also: test concentration or dose not given here
T3 construct: 6xHis (N, cleaved yes); made in house; host or cells: E. coli One Shot BL21 Star
T3 sequence (Q93096 1-173): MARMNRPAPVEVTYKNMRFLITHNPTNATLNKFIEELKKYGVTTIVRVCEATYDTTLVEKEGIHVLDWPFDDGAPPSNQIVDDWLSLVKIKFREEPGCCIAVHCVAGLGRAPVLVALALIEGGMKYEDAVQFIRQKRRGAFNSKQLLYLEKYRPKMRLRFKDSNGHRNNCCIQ

[4] = FDA-approved drug screen, compared to DMSO

Compound | % Phosphatase Activity (compared to DMSO) PRL-2 [1, 4] [%] | % Phosphatase Activity (compared to DMSO) PRL-3 [2, 4] [%] | % Phosphatase Activity (compared to DMSO) PRL-1 [3, 4] [%] | % Phosphatase Activity (compared to DMSO) PRL-2 [1] [%] | % Phosphatase Activity (compared to DMSO) PRL-3 [2] [%] | % Phosphatase Activity (compared to DMSO) PRL-1 [3] [%]
CO[C@H]1O[C@@H]2O[C@@]3(C)CC[C@H]4[C@H](C)CC[C@@H]([C@H]1C)[C@@]24OO3 [Artemether] | 96 | 85 | 87 |  |  | 
C[C@@H]1CC[C@H]2[C@@H](C)C(=O)O[C@@H]3O[C@@]4(C)CC[C@@H]1[C@]32OO4 [Artemisinin] | 90 | 80 | 100 |  |  | 
CCCNC(C)C(=O)Nc1c(C)csc1C(=O)OC (stereo not drawn) [Articaine HCl] | 109 | 84 | 110 |  |  | 
CN1CC2c3ccccc3Oc3ccc(Cl)cc3C2C1 (stereo not drawn) [Asenapine] | 107 | 79 | 98 |  |  | 
COC(=O)[C@H](Cc1ccccc1)NC(=O)[C@@H](N)CC(=O)O [Aspartame] (H-Asp-Phe-OMe) | 95 | 85 | 92 |  |  | 
CC(=O)Oc1ccccc1C(=O)O [Aspirin] | 110 | 102 | 126 |  |  | 
COC(=O)N[C@H](C(=O)N[C@@H](Cc1ccccc1)[C@@H](O)CN(Cc1ccc(-c2ccccn2)cc1)NC(=O)[C@@H](NC(=O)OC)C(C)(C)C)C(C)(C)C.O=S(=O)(O)O [Atazanavir Sulfate] | 83 | 83 | 95 |  |  | 
COC(=O)N[C@H](C(=O)N[C@@H](Cc1ccccc1)[C@@H](O)CN(Cc1ccc(-c2ccccn2)cc1)NC(=O)[C@@H](NC(=O)OC)C(C)(C)C)C(C)(C)C [Atazanavir] | 89 | 85 | 94 |  |  | 
CCC1(c2cnc[nH]2)Cc2ccccc2C1.Cl [Atipamezole hydrochloride] | 106 | 88 | 98 |  |  | 
CCC1(c2cnc[nH]2)Cc2ccccc2C1 [Atipamezole] | 109 | 87 | 94 |  |  | 
CNCC[C@@H](Oc1ccccc1C)c1ccccc1 [Atomoxetine HCl] | 109 | 89 | 98 |  |  | 
CC(C)c1c(C(=O)Nc2ccccc2)c(-c2ccccc2)c(-c2ccc(F)cc2)n1CC[C@@H](O)C[C@@H](O)CC(=O)O [Atorvastatin Calcium] | 87 | 74 | 100 |  |  | 
O=C1C(O)=C([C@H]2CC[C@H](c3ccc(Cl)cc3)CC2)C(=O)c2ccccc21 [Atovaquone] | 88 | 90 | 96 |  |  | 
COc1ccc(CC2c3cc(OC)c(OC)cc3CC[N+]2(C)CCC(=O)OCCCCCOC(=O)CC[N+]2(C)CCc3cc(OC)c(OC)cc3C2Cc2ccc(OC)c(OC)c2)cc1OC (stereo not drawn) [Atracurium Besylate] | 101 | 101 | 99 |  |  | 
NC(=O)[C@@H](CCC(F)(F)F)N(Cc1ccc(-c2ncon2)cc1F)S(=O)(=O)c1ccc(Cl)cc1 [Avagacestat (BMS-708163)] | 85 | 73 | 89 |  |  | 
COc1ccc(CN=c2[nH]c(N3CCC[C@H]3CO)ncc2C(=O)NCc2ncccn2)cc1Cl [Avanafil] | 112 | 97 | 98 |  |  | 

Compound | % Phosphatase Activity (compared to DMSO) PRL-2 [1, 4] [%] | % Phosphatase Activity (compared to DMSO) PRL-3 [2, 4] [%] | % Phosphatase Activity (compared to DMSO) PRL-1 [3, 4] [%] | % Phosphatase Activity (compared to DMSO) PRL-2 [1] [%] | % Phosphatase Activity (compared to DMSO) PRL-3 [2] [%] | % Phosphatase Activity (compared to DMSO) PRL-1 [3] [%]
COc1ccc(C(=O)CC(=O)c2ccc(C(C)(C)C)cc2)cc1 [Avobenzone] | 68 | 87 | 93 |  |  | 
CNC(=O)c1ccccc1Sc1ccc2c(/C=C/c3ccccn3)n[nH]c2c1 [Axitinib] | 164 | 96 | 102 |  |  | 
Nc1ncn([C@@H]2O[C@H](CO)[C@@H](O)[C@H]2O)c(=O)n1 [Azacitidine] | 93 | 89 | 78 |  |  | 
OC(c1ccccc1)(c1ccccc1)C1CCNCC1 [Azacyclonol] | 127 | 96 | 109 |  |  | 
O=C(CCCN1CCN(c2ccccn2)CC1)c1ccc(F)cc1 [Azaperone] | 96 | 88 | 96 |  |  | 
CN1CCC(=C2c3ccccc3CCc3cccnc32)CC1 [Azatadine dimaleate] | 108 | 84 | 103 |  |  | 
Cn1cnc([N+](=O)[O-])c1Sc1ncnc2nc[nH]c12 [Azathioprine] |  |  |  | 107 | 74 | 96
O=C(O)CCCCCCCC(=O)O [Azelaic acid] | 98 | 95 | 94 |  |  | 
CN1CCCC(n2nc(Cc3ccc(Cl)cc3)c3ccccc3c2=O)CC1 (stereo not drawn) [Azelastine HCl] | 113 | 87 | 121 |  |  | 
CC1=C(C(=O)OC(C)C)C(c2cccc([N+](=O)[O-])c2)C(C(=O)OC2CN(C(c3ccccc3)c3ccccc3)C2)=C(N)N1 (stereo not drawn) [Azelnidipine] | 99 | 95 | 93 |  |  | 
CCOc1nc2cccc(C(=O)OCc3oc(=O)oc3C)c2n1Cc1ccc(-c2ccccc2-c2noc(=O)[nH]2)cc1 [Azilsartan Medoxomil] | 96 | 90 | 91 |  |  | 
CCOc1nc2cccc(C(=O)O)c2n1Cc1ccc(-c2ccccc2-c2nc(=O)o[nH]2)cc1 [Azilsartan] | 130 | 101 | 111 |  |  | 
CC[C@H]1OC(=O)[C@H](C)[C@@H](O[C@H]2C[C@@](C)(OC)[C@@H](O)[C@H](C)O2)[C@H](C)[C@@H](O[C@@H]2O[C@H](C)C[C@H](N(C)C)[C@H]2O)[C@](C)(O)C[C@@H](C)CN(C)[C@H](C)[C@@H](O)[C@]1(C)O [Azithromycin Dihydrate] | 99 | 73 | 98 |  |  | 
CC[C@H]1OC(=O)[C@H](C)[C@@H](O[C@H]2C[C@@](C)(OC)[C@@H](O)[C@H](C)O2)[C@H](C)[C@@H](O[C@@H]2O[C@H](C)C[C@H](N(C)C)[C@H]2O)[C@](C)(O)C[C@@H](C)CN(C)[C@H](C)[C@@H](O)[C@]1(C)O [Azithromycin] | 94 | 101 | 94 |  |  | 
CC1(C)S[C@@H]2[C@H](NC(=O)[C@H](NC(=O)N3CCNC3=O)c3ccccc3)C(=O)N2[C@H]1C(=O)O [Azlocillin sodium salt] | 112 | 85 | 100 |  |  | 
C[C@H]1[C@H](NC(=O)/C(=N\OC(C)(C)C(=O)O)c2csc(N)n2)C(=O)N1S(=O)(=O)O [Aztreonam] | 88 | 76 | 97 |  |  | 
